Data taken from US20070128217A1 (priority 2003, published 2007).

Assays:
[1] = tested on: recombinant human anti-SARS-CoV antibody 03-018; type: binding; set-up: Binding of antibody 03-018 to linear peptides of the N protein of SARS-CoV Urbani / Binding of antibody 03-018 to looped/cyclic peptides of the N protein of SARS-CoV Urbani: unit not given here
[2] = tested on: rabbit serum obtained by immunizing a rabbit with the SARS-CoV strain Frankfurt 1; type: binding; set-up: Binding of a rabbit serum to linear peptides / Binding of a rabbit serum to looped peptides / Rabbit serum linear peptides / Rabbit serum looped peptides / Binding of a rabbit serum to linear peptides of protein N of SARS-CoV Urbani (Rabbit serum linear peptides) / Binding of a rabbit serum to looped/cyclic peptides of protein N of SARS-CoV Urbani (Rabbit serum looped peptides): unit not given here
[3] = tested on: control sera (pooled serum of ten healthy LUMC hospital workers; commercial negative donor pooled serum from the Dutch bloodbank); type: binding, human; set-up: Binding of Control serum LUMC to linear peptides / Binding of Control serum Blood-bank to linear peptides / Binding of Control serum LUMC to looped peptides / Binding of Control Serum Blood-Bank to Looped peptides / Binding of Control serum LUMC to linear peptides of the protein M of SARS-CoV Urbani / Binding of Control serum Blood-bank to linear peptides of the protein M of SARS-CoV Urbani / Binding of Control serum LUMC to looped peptides of the protein M of SARS-CoV Urbani / Binding of Control Serum Blood-Bank to Looped peptides of the protein M of SARS-CoV Urbani: unit not given here
[4] = tested on: antibodies in sera from SARS patients (sera 1a, 1b, 2, 6, 37, 62, London, SARS-yellow, SARS-green); type: binding, human; set-up: Binding of serum 6 to linear peptides of protein X1 of SARS-CoV Urbani / Binding of serum 37 to linear peptides of protein X1 of SARS-CoV Urbani / Binding of serum 6 to looped/cyclic peptide (PEPSCAN-ELISA) / Binding of serum 37 to looped/cyclic peptide (PEPSCAN-ELISA) / Binding of serum 37 to looped/cyclic peptides of protein X1 of SARS-CoV Urbani / Binding of serum 6 to linear peptides of protein X2 / Binding of serum 37 to linear peptides of protein X2 / Binding of serum 37 to looped/cyclic peptides of protein X2 of SARS-CoV Urbani / Binding of serum 6 to linear peptides of protein M of SARS-CoV Urbani / Binding of serum 37 to linear peptides of protein M of SARS-CoV Urbani / Binding of serum 6 to looped/cyclic peptides of protein M of SARS-CoV Urbani / Binding of serum 37 to looped/cyclic peptides of protein M of SARS-CoV Urbani / Binding of serum 6 to linear peptides of protein X3 of SARS-CoV Urbani / Binding of serum 37 to linear peptides of protein X3 of SARS-CoV Urbani / Binding of serum 37 to looped/cyclic peptides of protein X3 of SARS-CoV Urbani / Binding of serum 6 to linear peptides of protein X4 of SARS-CoV Urbani / Binding of serum 37 to linear peptides of protein X4 of SARS-CoV Urbani / Binding of serum 37 to looped/cyclic peptides of protein X4 of SARS-CoV Urbani / Binding of serum 6 to linear peptides of protein X5 of SARS-CoV Urbani / Binding of serum 37 to linear peptides of protein X5 of SARS-CoV Urbani / Binding of serum 37 to looped/cyclic peptides of protein X5 of SARS-CoV Urbani / Binding of serum 6 to linear peptides of protein N of SARS-CoV Urbani / Binding of serum 37 to linear peptides of protein N of SARS-CoV Urbani / Binding of serum 6 to linear peptide (PEPSCAN-ELISA) / Binding of serum 1a to looped/cyclic peptides of protein N of SARS-CoV Urbani / Binding of serum 1b to looped/cyclic peptides of protein N of SARS-CoV Urbani / Binding of serum 2 to looped/cyclic peptides of protein N of SARS-CoV Urbani / Binding of serum 6 to looped/cyclic peptides of protein N of SARS-CoV Urbani / Binding of serum 37 to looped/cyclic peptides of protein N of SARS-CoV Urbani / Binding of serum 62 to looped/cyclic peptides of protein N of SARS-CoV Urbani / Binding of serum London to looped/cyclic peptides of protein N of SARS-CoV Urbani / Binding of serum SARS-green to looped/cyclic peptides of protein N of SARS-CoV Urbani: unit not given here

Row | Sequence | Binding of antibody 03-018 to linear peptides of the N protein of SARS-CoV Urbani [1] | Binding of antibody 03-018 to looped/cyclic peptides of the N protein of SARS-CoV Urbani [1] | Binding of a rabbit serum to linear peptides of protein N of SARS-CoV Urbani (Rabbit serum linear peptides) [2] | Binding of a rabbit serum to looped/cyclic peptides of protein N of SARS-CoV Urbani (Rabbit serum looped peptides) [2] | Control Serum Blood-Bank Looped peptides [3] | Control serum Blood-bank linear peptides [3] | Control serum LUMC linear peptides [3] | Control serum LUMC looped peptides [3] | Binding of serum 1a to linear peptides of protein N of SARS-CoV Urbani [4] | Binding of serum 1a to looped/cyclic peptides of protein N of SARS-CoV Urbani [4] | Binding of serum 1b to linear peptides of protein N of SARS-CoV Urbani [4] | Binding of serum 1b to looped/cyclic peptides of protein N of SARS-CoV Urbani [4] | Binding of serum 2 to linear peptides of protein N of SARS-CoV Urbani [4] | Binding of serum 2 to looped/cyclic peptides of protein N of SARS-CoV Urbani [4] | Binding of serum 6 to looped/cyclic peptides of protein N of SARS-CoV Urbani [4] | Binding of serum 37 to looped/cyclic peptides of protein N of SARS-CoV Urbani [4] | Binding of serum 62 to looped/cyclic peptides of protein N of SARS-CoV Urbani [4] | Binding of serum London to looped/cyclic peptides of protein N of SARS-CoV Urbani [4] | Binding of serum SARS-green to looped/cyclic peptides of protein N of SARS-CoV Urbani [4] | Binding of serum SARS-yellow to looped/cyclic peptides of protein N of SARS-CoV Urbani [4] | further results
1 | PTEPKKDKKKKTDEA | 0.1 | 0.2 | 0.1 | 0.2 | 0.4 | 0.6 | 0.6 | 0.3 | 0.2 | 0.2 | 0.1 | 0.1 | 2.0 | 0.3 | 0.1 | 0.3 | 0.3 | 0.3 | 0.0 | 0.2 | Binding of serum 6 to linear peptides of protein N of SARS-CoV Urbani [4]: 0.2; Binding of serum 37 to linear peptides of protein N of SARS-CoV Urbani [4]: 0.6; Binding of serum 62 to linear peptides of protein N of SARS-CoV Urbani [4]: 0.7; Binding of serum London to linear peptides of protein N of SARS-CoV Urbani [4]: 0.5; Binding of serum SARS-green to linear peptides of protein N of SARS-CoV Urbani [4]: 0.2; Binding of serum SARS-yellow to linear peptides of protein N of SARS-CoV Urbani [4]: 0.5
2 | PTVTLLPAADMDDFS | 0.1 | 0.2 | 0.1 | 0.0 | 0.3 | 0.8 | 0.7 | 0.3 | 0.3 | 0.2 | 0.2 | 0.2 | 0.2 | 0.3 | 0.1 | 0.4 | 0.2 | 0.2 | 0.7 | 0.1 | Binding of serum 6 to linear peptides of protein N of SARS-CoV Urbani [4]: 0.1; Binding of serum 37 to linear peptides of protein N of SARS-CoV Urbani [4]: 1.4; Binding of serum 62 to linear peptides of protein N of SARS-CoV Urbani [4]: 0.9; Binding of serum London to linear peptides of protein N of SARS-CoV Urbani [4]: 0.6; Binding of serum SARS-green to linear peptides of protein N of SARS-CoV Urbani [4]: 1.9; Binding of serum SARS-yellow to linear peptides of protein N of SARS-CoV Urbani [4]: 0.7
3 | QASSRSSSRSRGNSR | 0.1 | 0.2 | 0.3 | 1.1 |  |  |  |  |  | 0.3 |  | 0.2 |  | 0.4 | 0.3 | 0.5 | 0.4 | 0.4 | 0.1 | 0.4 | Binding of Control Serum Blood-Bank to Looped peptides [3]: 0.5; Binding of Control serum Blood-bank to linear peptides [3]: 0.7; Binding of Control serum LUMC to linear peptides [3]: 0.7; Binding of Control serum LUMC to looped peptides [3]: 0.5; Binding of serum 1a to linear peptide (PEPSCAN-ELISA) [4]: 0.2; Binding of serum 1b to linear peptide (PEPSCAN-ELISA) [4]: 0.1; Binding of serum 2 to linear peptide (PEPSCAN-ELISA) [4]: 0.3; Binding of serum 6 to linear peptide (PEPSCAN-ELISA) [4]: 0.3; Binding of serum 37 to linear peptide (PEPSCAN-ELISA) [4]: 0.6; Binding of serum 62 to linear peptide (PEPSCAN-ELISA) [4]: 0.6; Binding of serum London to linear peptide (PEPSCAN-ELISA) [4]: 0.5; Binding of serum SARS-green to linear peptide (PEPSCAN-ELISA) [4]: 0.2; Binding of serum SARS-yellow to linear peptide (PEPSCAN-ELISA) [4]: 0.6
